Laboratory results published in patent publication US20230304010A1, “COMPOSITIONS AND METHODS FOR TREATING VIRAL INFECTIONS” (priority 2020, published 2023).
Like-named read-outs stand apart in the source and are kept apart here.

Legend:
[1] = tested on: ACE2 : SARS-CoV-2 Spike Alpha (B1.1.7/United Kingdom) variant; assay type: binding; settings: read-out: IC50, Alpha (B117)
[2] = tested on: ACE2 : SARS-CoV-2 Spike Beta (B1.351/South Africa) variant; assay type: binding; settings: read-out: IC50, Beta (B1312)
[3] = tested on: ACE2 : SARS-CoV-2 Spike Gamma (P1/Brazil) variant; assay type: binding
[4] = tested on: ACE2 : SARS-CoV-2 Spike Delta (B1 617 2/India) variant; assay type: binding; settings: read-out: IC50, Delta (B1617)
[5] = tested on: ACE2 : SARS-CoV-2 Spike Epsilon (B1429) variant; assay type: binding
[6] = tested on: SARS-CoV-2 Alpha variant
[7] = tested on: SARS-CoV-2 Beta variant
[8] = tested on: SARS-CoV-2 Delta variant
[9] = tested on: SARS-CoV-2 variants (Alpha/Beta/Delta); assay type: cell-based

Row | Molecule | IC50 [1] | IC50 [2] | IC50 [3] | IC50 [4] | IC50 [5] | IC50 ([6]; read-out: Alpha (B117) IC50) | IC50 ([6]; read-out: IC50, Alpha (B117)) | IC50 ([7]; read-out: Beta (B1312) IC50) | IC50 ([7]; read-out: IC50, Beta (B1312)) | IC50 ([8]; read-out: Delta (B1617) IC50) | IC50 ([8]; read-out: IC50, Delta (B1617)) | inhibitory activity against all SARS-CoV2 variant viruses [9] | fold stronger anti-SARS-CoV-2 activity than Remdesivir [9]
1 | Ac-N*GVEGFNK*Ava-LWRALWRLWRSLWRLLWK-NH2 [Seq17] | 136 ± 21 nM | 75.2 ± 21 nM | 87.2 ± 20 nM | 48.2 ± 11 nM | 94.7 ± 17 nM | 125 ± 24 nM | 125 ± 24 nM | 118 ± 15 nM | 118 ± 15 nM | 25.7 ± 10 nM | 25.7 ± 10 nM | – | –
2 | GGCCAAACTGTCACTAAGAAA (chemistry not given here) [DIVC-6] | – | – | – | – | – | 84.5 nM | – | 58.5 nM | – | 91.3 nM | – | potent inhibitory activity | –
3 | CC(=O)N[C@@H](CCC(=O)O)C(=O)N[C@@H](CCC(N)=O)C(=O)N[C@@H](C)C(=O)N[C@@H](CCCCN)C(=O)N[C@H](C(=O)N[C@@H](Cc1ccccc1)C(=O)N[C@@H](CC(C)C)C(=O)N[C@@H](CC(=O)O)C(=O)N[C@@H](CCCCN)C(=O)N[C@@H](Cc1ccccc1)C(=O)N[C@@H](CC(N)=O)C(=O)N[C@@H](Cc1c[nH]cn1)C(=O)N[C@@H](CCC(=O)O)C(=O)N[C@@H](C)C(=O)N[C@@H](CCC(=O)O)C(=O)N[C@@H](CC(=O)O)C(=O)N[C@@H](CC(C)C)C(=O)N[C@@H](Cc1ccccc1)C(=O)NCCCCCC(=O)N[C@@H](CC(C)C)C(=O)N[C@@H](Cc1c[nH]c2ccccc12)C(=O)N[C@@H](CCCNC(=N)N)C(=O)N[C@@H](C)C(=O)N[C@@H](CC(C)C)C(=O)N[C@@H](Cc1c[nH]c2ccccc12)C(=O)N[C@@H](CCCNC(=N)N)C(=O)N[C@@H](CC(C)C)C(=O)N[C@@H](Cc1c[nH]c2ccccc12)C(=O)N[C@@H](CCCNC(=N)N)C(=O)N[C@@H](CO)C(=O)N[C@@H](CC(C)C)C(=O)N[C@@H](Cc1c[nH]c2ccccc12)C(=O)N[C@@H](CCCNC(=N)N)C(=O)N[C@@H](CC(C)C)C(=O)N[C@@H](CC(C)C)C(=O)N[C@@H](Cc1c[nH]c2ccccc12)C(=O)N[C@@H](CCCCN)C(N)=O)[C@@H](C)O [Seq33] | 17.8 ± 9 nM | 28.8 ± 10 nM | 20.2 ± 5 nM | 25.7 ± 8 nM | 31.4 ± 9 nM | – | – | – | – | – | – | – | 200 fold
